pIC50: −log10 of the molar value.
Columns and labels:
human orexin-1 receptor = biological target: T1, human orexin-1 receptor (Homo sapiens, UniProt O43613); assay: Intracellular calcium measurement (FLIPR Tetra), orexin receptor antagonistic activity, OX1; type: cell-based; conditions: CHO cells expressing human orexin-1 receptor, 3 nM orexin-A
T1 construct: expressed in transfected cells; host or cells: CHO (Chinese hamster ovary) cells, kept under G418 selection
T1 sequence (O43613 1-425): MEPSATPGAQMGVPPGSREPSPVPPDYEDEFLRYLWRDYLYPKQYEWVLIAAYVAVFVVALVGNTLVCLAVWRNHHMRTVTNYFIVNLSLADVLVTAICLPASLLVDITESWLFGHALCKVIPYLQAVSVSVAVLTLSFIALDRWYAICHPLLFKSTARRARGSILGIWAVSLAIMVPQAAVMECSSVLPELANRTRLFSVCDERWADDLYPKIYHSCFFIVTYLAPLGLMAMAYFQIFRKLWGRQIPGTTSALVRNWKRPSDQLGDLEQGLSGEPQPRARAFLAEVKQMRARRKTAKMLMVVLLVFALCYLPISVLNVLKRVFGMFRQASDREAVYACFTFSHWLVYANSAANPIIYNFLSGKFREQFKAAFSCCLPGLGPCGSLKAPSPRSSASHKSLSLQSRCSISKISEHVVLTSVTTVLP
In short: (§1)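 Recombinant CHO cells expressing human OX1 or OX2, loaded with fluo-4 AM plus probenecid, were preincubated with antagonist 10 min, then stimulated with 3 nM human orexin-A. Peak fluorescence was compared with vehicle; IC50 derived, sometimes normalized to an on-plate reference compound; two pipetting/cell-splitting conditions were used.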

human orexin-2 receptor = biological target: T2, human orexin-2 receptor (Homo sapiens, UniProt O43614); assay: Intracellular calcium measurement (FLIPR Tetra), orexin receptor antagonistic activity, OX2; type: cell-based; conditions: CHO cells expressing human orexin-2 receptor, 3 nM orexin-A
T2 construct: expressed in transfected cells; host or cells: CHO (Chinese hamster ovary) cells, kept under G418 selection
T2 sequence (O43614 1-444): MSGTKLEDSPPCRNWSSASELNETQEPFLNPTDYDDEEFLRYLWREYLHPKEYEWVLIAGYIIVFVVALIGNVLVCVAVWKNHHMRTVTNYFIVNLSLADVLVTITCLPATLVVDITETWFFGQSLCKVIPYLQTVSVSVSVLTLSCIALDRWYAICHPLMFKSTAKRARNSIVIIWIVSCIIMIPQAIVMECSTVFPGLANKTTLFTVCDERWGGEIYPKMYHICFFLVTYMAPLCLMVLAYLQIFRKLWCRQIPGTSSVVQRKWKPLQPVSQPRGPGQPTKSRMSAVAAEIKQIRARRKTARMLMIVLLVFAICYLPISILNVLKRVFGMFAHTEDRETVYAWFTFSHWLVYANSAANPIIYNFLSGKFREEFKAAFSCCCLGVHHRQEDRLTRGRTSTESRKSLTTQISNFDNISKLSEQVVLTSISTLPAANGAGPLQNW
In short: as §1

[1] = conditions B, normalized (*) using IC50 of on-plate reference compound

Molecule	pIC50 (human orexin-1 receptor; [1])	pIC50 (human orexin-2 receptor; [1])	pIC50 (human orexin-1 receptor; conditions B)	pIC50 (human orexin-2 receptor; conditions B)	other results
Cc1cccc(-c2sc(N)nc2C(=O)N(CCc2nc3ccc(Cl)cc3[nH]2)CC2CC2)c1 [Example 220, 2-Amino-5-m-tolyl-thiazole-4-carboxylic acid [2-(6-chloro-1H-benzoimidazol-2-yl)-ethyl]-cyclopropylmethyl-amide]			6.86	7.51	
COc1ccc(CCN(CC2CC2)C(=O)c2nc(C)sc2-c2ccccc2)cc1OC [Example 18, 2-Methyl-5-phenyl-thiazole-4-carboxylic acid cyclopropylmethyl-[2-(3,4-dimethoxy-phenyl)-ethyl]-amide]					pIC50 (human orexin-1 receptor; conditions A): 6.03; pIC50 (human orexin-2 receptor; conditions A): 8.40
COc1ccc(CCN(CC(N)=O)C(=O)c2nc(C)sc2-c2cccc(F)c2)cc1OC [Example 131, 5-(3-Fluoro-phenyl)-2-methyl-thiazole-4-carboxylic acid carbamoylmethyl-[2-(3,4-dimethoxy-phenyl)-ethyl]-amide]			< 5.00	7.31	
Cc1cccc(-c2sc(N)nc2C(=O)N(CCc2ccc3c(c2)OC(F)(F)O3)CC2CC2)c1 [Example 157, 2-Amino-5-m-tolyl-thiazole-4-carboxylic acid cyclopropylmethyl-[2-(2,2-difluoro-benzo[1,3]dioxol-5-yl)-ethyl]-amide]			5.07	6.13	
Cc1nc(C(=O)N(CCc2ccccc2Cl)CC2CC2)c(-c2ccc(C)c(C)c2)s1 [Example 180, 5-(3,4-Dimethyl-phenyl)-2-methyl-thiazole-4-carboxylic acid [2-(2-chloro-phenyl)-ethyl]-cyclopropylmethyl-amide]			5.36	6.62	
2-Methyl-5-m-tolyl-thiazole-4-carboxylic acid [2-cyclopropyl-amino-2-(3,4-dimethoxy-phenyl)-ethyl]-cyclopropylmethyl-amide [Example 432]			6.63	7.12	
CCOc1ccc(CCN(CC2CC2)C(=O)c2nc(C)sc2-c2ccc(C)c(C)c2)cc1OC [Example 199, 5-(3,4-Dimethyl-phenyl)-2-methyl-thiazole-4-carboxylic acid cyclopropylmethyl-[2-(4-ethoxy-3-methoxy-phenyl)-ethyl]-amide]			6.39	8.05	
COc1ccc(CCN(CC2CC2)C(=O)c2nc(N)sc2-c2cccc(C)c2)cc1OC(F)F [Example 165, 2-Amino-5-m-tolyl-thiazole-4-carboxylic acid cyclopropylmethyl-[2-(3-difluoromethoxy-4-methoxy-phenyl)-ethyl]-amide]	7.46	7.74			
COc1nc(C(=O)N(CC2CC2)CC(O)c2ccc(OC)c(OC)c2)c(-c2cccc(C)c2)s1 (stereo not shown) [Example 78, 2-Methoxy-5-m-tolyl-thiazole-4-carboxylic acid cyclopropylmethyl-[2-(3,4-dimethoxy-phenyl)-2-hydroxy-ethyl]-amide]					pIC50 (human orexin-1 receptor; conditions A): 5.95; pIC50 (human orexin-2 receptor; conditions A): 6.85
COc1ccc(CCN(CC2CC2)C(=O)c2nc(N)sc2-c2cccc(C)c2)cc1Br [Example 163, 2-Amino-5-m-tolyl-thiazole-4-carboxylic acid [2-(3-bromo-4-methoxy-phenyl)-ethyl]-cyclopropylmethyl-amide]			7.09	7.74	
CCN(CCc1c[nH]c2ccccc12)C(=O)c1nccnc1-c1cccc(OC)c1 [Example 533, 3-(3-Methoxy-phenyl)-pyrazine-2-carboxylic acid ethyl-[2-(1H-indol-3-yl)-ethyl]-amide]	5.63	6.59			
COc1ccc(CCN(CC2CC2)C(=O)c2nc(C3CC3)sc2-c2ccccc2)cc1OC [Example 22, 2-Cyclopropyl-5-phenyl-thiazole-4-carboxylic acid cyclopropylmethyl-[2-(3,4-dimethoxy-phenyl)-ethyl]-amide]					pIC50 (human orexin-1 receptor; conditions A): 6.24; pIC50 (human orexin-2 receptor; conditions A): 7.46
CCN(CCc1ccc(OC)c(OC)c1)C(=O)c1nc(C)sc1-c1ccc(C)c(C)c1 [Example 108, 5-(3,4-Dimethyl-phenyl)-2-methyl-thiazole-4-carboxylic acid [2-(3,4-dimethoxy-phenyl)-ethyl]-ethyl-amide]			7.44	8.30	
Cc1cccc(-c2sc(N)nc2C(=O)N(CCc2c[nH]c3cc(F)ccc23)CC2CC2)c1 [Example 233, 2-Amino-5-m-tolyl-thiazole-4-carboxylic acid cyclopropylmethyl-[2-(6-fluoro-1H-indol-3-yl)-ethyl]-amide]	7.43	7.66			

More lines, main results first:

pIC50 (human orexin-1 receptor; [1])	pIC50 (human orexin-2 receptor; [1])	pIC50 (human orexin-1 receptor; conditions B)	pIC50 (human orexin-2 receptor; conditions B)	Molecule	other results
5.79	7.28			Cc1nc(C(=O)N(CCc2c[nH]c3ccc(F)cc23)CC2CC2)c(-c2ccc(CO)nc2)s1 [Example 423, 5-(6-Hydroxymethyl-pyridin-3-yl)-2-methyl-thiazole-4-carboxylic acid cyclopropylmethyl-[2-(5-fluoro-1H-indol-3-yl)-ethyl]-amide]	
7.01	7.60			O=C(c1cncnc1-c1ccccc1)N(CCc1c[nH]c2cc(F)c(Cl)cc12)CC1CC1 [Example 471, 4-Phenyl-pyrimidine-5-carboxylic acid [2-(5-chloro-6-fluoro-1H-indol-3-yl)-ethyl]-cyclopropylmethyl-amide]	
7.21	7.96			COc1ccc(-c2cccnc2C(=O)N(CCc2c[nH]c3ccc(F)cc23)CC2CC2)cn1 [Example 400, 6′-Methoxy-[3,3′]bipyridinyl-2-carboxylic acid cyclopropylmethyl-[2-(5-fluoro-1H-indol-3-yl)-ethyl]-amide]	
6.33	8.00			COC(=O)CN(CCc1c[nH]c2ccccc12)C(=O)c1nc(C)sc1-c1cccc(Br)c1 [Example 590, {[5-(3-Bromo-phenyl)-2-methyl-thiazole-4-carbonyl]-[2-(1H-indol-3-yl)-ethyl]-amino}-acetic acid methyl ester]	
5.60	7.00			Cc1nc(C(=O)N(CCc2c[nH]c3ccc(F)cc23)CC2CC2)c(-c2ccc(C#N)c(F)c2)s1 [Example 419, 5-(4-Cyano-3-fluoro-phenyl)-2-methyl-thiazole-4-carboxylic acid cyclopropylmethyl-[2-(5-fluoro-1H-indol-3-yl)-ethyl]-amide]	
7.27	7.49			CNc1nc(C(=O)N(CCc2c[nH]c3ccc(F)cc23)CC2CC2)c(-c2cccc(C)c2)s1 [Example 435, 2-Methylamino-5-m-tolyl-thiazole-4-carboxylic acid cyclopropylmethyl-[2-(5-fluoro-1H-indol-3-yl)-ethyl]amide]	
6.12	6.79			COc1ccc(-c2cccnc2C(=O)N(CCc2c[nH]c3ccc(F)cc23)CC(F)F)cn1 [Example 317, 6′-Methoxy-[3,3′]bipyridinyl-2-carboxylic acid (2,2-difluoro-ethyl)-[2-(5-fluoro-1H-indol-3-yl)-ethyl]-amide]	
6.07	6.94			COC(=O)CN(CCc1c[nH]c2ccc(F)cc12)C(=O)c1ncccc1-c1ccc(OC)nc1 [Example 315]	
6.24	6.73			CN(C)c1cccc(-c2ocnc2C(=O)N(CCc2c[nH]c3ccc(F)cc23)CC2CC2)c1 [Example 261, 5-(3-Dimethylamino-phenyl)-oxazole-4-carboxylic acid cyclopropylmethyl-[2-(5-fluoro-1H-indol-3-yl)-ethyl]-amide]	
6.75	7.82			CCN(CCc1c[nH]c2ccccc12)C(=O)c1cncnc1-c1ccc(Cl)c(Cl)c1 [Example 544, 4-(3,4-Dichloro-phenyl)-pyrimidine-5-carboxylic acid ethyl-[2-(1H-indol-3-yl)-ethyl]-amide]	
5.42	6.15			Cc1ccc(-c2nccnc2C(=O)N(CCc2c[nH]c3ccc(F)cc23)CC(N)=O)cc1C [Example 294, 3-(3,4-Dimethyl-phenyl)-pyrazine-2-carboxylic acid carbamoylmethyl-[2-(5-fluoro-1H-indol-3-yl)-ethyl]-amide]	
		5.75	6.63	COc1ccc(CCN(CC2CC2)C(=O)c2nc(C)sc2-c2ccc(C)c(C)c2)cn1 [Example 254, 5-(3,4-Dimethyl-phenyl)-2-methyl-thiazole-4-carboxylic acid cyclopropylmethyl-[2-(6-methoxy-pyridin-3-yl)-ethyl]-amide]	

Reference: US20110212968A1, “PHENETHYLAMIDE DERIVATIVES AND THEIR HETEROCYCLIC ANALOGUES” (priority 2008, published 2011)
